Source: US12629398B2, “Method of alleviating obsessive compulsive disorder symptoms by use of a multi-strain probiotic formulation” (Unique Biotech Limited, priority 2024, dated 2026)
Entries after “also recorded” stand apart in the source; their conditions may differ. Counter-ions that a name gives are not always drawn.

What was measured:
CRP = assay: Real-time PCR of cytokine mRNA in the amygdala: CRP; type: in vivo, rat; conditions: quinpirole vs. vehicle, treatments vs. quinpirole group
Method: (§1) Experimental design was as given in Ref 12, incorporated herein in its entirety. The rats were randomly distributed into 5 different groups, with 6-8 rats per group (FIG. 1). Group 1, referred to as the “Vehicle” group, received the vehicle for a duration of 8 weeks. Group 2, denoted as the “Probiotic” group, received the peroral (PO) multistrain probiotic at a dose of 1× 10^10 CFU per rat for 8 weeks.
(§2) RT-PCR was performed to analyze the impact of a multistrain probiotic on cytokines mRNA expression (Ref 20, Rahman et al). Briefly, NucleoSpin® RNA isolation kit (#740955.50, DSS Takara Bio India Private Ltd) was used to extract RNA from the rat brain's amygdala. PrimeScript™ 1st strand cDNA synthesis kit (#6110A, DSS Takara Bio India Private Ltd) was used to process these RNA samples to cDNA. The 10 μL reaction mixture was prepared by mixing 5 μL of SYBR Green, 2 μL of the PCR primer (1 μL reverse+1 μL forward) (GCC Biotech, India, Private Ltd.). 1 μL of diluted cDNA template and 2 μL nuclease-free water. For each PCR test, the threshold cycle numbers were averaged across all samples. Using Δ/Δ Ct technique, the relative mRNA expression was calculated. The primers were designed (Table 6) using the software tools NCBI BLAST.

TNF-α = assay: Real-time PCR of cytokine mRNA in the amygdala: TNF-α; type: in vivo, rat; conditions: quinpirole vs. vehicle, treatments vs. quinpirole group
Method: as §1, §2

SCFAs = assay: Short-chain fatty acids (SCFAs) in fecal samples by GC-FID; type: in vivo, rat; conditions: treatments given in quinpirole rats, compared to OCD, unit from Table 7
Text: as §1
The gas chromatography-flame ionization detection (GC-FID) was used to evaluate the effect of OCD on bacterial metabolites as described earlier in our publications (Ref 22, Rahman et al & Ref 23, Satti et al). Briefly, supernatant acidified with HCL (5 M) and then extracted in diethyl ether to estimate the SCFAs. The acetate, propionate, and butyrate levels were estimated by loading the known amount of each SCFA.

quinpirole-injected rats [1] = assay: Marble burying test, quinpirole OCD model; type: in vivo, Wistar rats; conditions: 10 min; quinpirole vs. control; quinpirole effect among rats that received probiotic or fluoxetine
Text: as §1

quinpirole-injected rats [2] = assay: Self-grooming test, quinpirole OCD model; type: in vivo, Wistar rats; conditions: 10 min; quinpirole vs. vehicle; treatments vs. quinpirole group
Text: as §1

nNOS = assay: Western blot analysis of nNOS in the frontal cortex; type: in vivo, rat; conditions: quinpirole vs. vehicle, treatments vs. quinpirole group
Text: as §1
Radioimmunoprecipitation Assay (RIPA) buffer was used to homogenize the frontal cortex part of the rat brain and then resolved using sodium dodecyl sulfate-polyacrylamide gel electrophoresis (SDS-PAGE). The proteins were then transferred to a nitrocellulose membrane, blocked with 5% bovine serum albumin, and incubated with the primary antibody anti-NOS1 (sc-5302, 1:1000 dilution) overnight at 4° C., followed by incubation with horseradish peroxidase-conjugate secondary antibody at RT. The required proteins were then detected by using an ECL solution.

colon = assay: Colon histopathology (H&E and alcian blue-PAS staining); type: in vivo, rat; conditions: quinpirole vs. control, treatments vs. quinpirole-recipient rats
Method: as §1
To examine the gut permeability, H&E and alcian-blue PAS staining were performed. The method is already described in our publications (Ref 20, 21, and 22), incorporated herein in its entirety. Briefly, sections were processed for deparaffinization with xylene, rehydration with alcohol, and then stained with H&E and alcian blue-PAS agents. Finally, slides were mounted with (DPX) followed by observations under a microscope (Leica-ICC50 W).

IL-6 = assay: Real-time PCR of cytokine mRNA in the amygdala: IL-6; type: in vivo, rat; conditions: quinpirole vs. vehicle, treatments vs. quinpirole group
Method: as §1, §2

quinpirole-injected rats [3] = assay: Elevated plus maze (EPM) test, anxiety-like behavior, quinpirole OCD model; type: in vivo, Wistar rats; conditions: fluoxetine 10 mg/kg peroral 6 weeks with quinpirole
Text: as §1

quinpirole-injected rats [4] = assay: Hole board test, quinpirole OCD model; type: in vivo, Wistar rats; conditions: 5-minute session; quinpirole vs. vehicle; treatments in quinpirole rats
Text: as §1

SMILES: CCCN1CCC[C@@H]2Cc3n[nH]cc3C[C@H]21 [Quinpirole, (−)-Quinpirole hydrochloride]
- mRNA expression of CRP (CRP): significant increase

SMILES: CNCCC(Oc1ccc(C(F)(F)F)cc1)c1ccccc1 (stereo not shown) [Fluoxetine, fluoxetine]
- mRNA expression of CRP (CRP): prevents
- mRNA expression of TNF-α (TNF-α): prevents
- butyrate level (SCFAs): 3.39 ± 0.32 µg/mL
- propionate level (SCFAs): 2.99 ± 0.55 µg/mL
- number of marbles buried (increase by quinpirole) (quinpirole-injected rats [1]): nonsignificant
- self-grooming activity (number of grooming episodes, score) (quinpirole-injected rats [2]): did not notice any change
- expression of nNOS (nNOS): significantly reduced; also recorded: decreased
- number of mature goblet cells (colon): significantly increased
- villus height/crypt depth ratio (colon): significantly increased
- mRNA expression of IL-6 (IL-6): prevents
- open-arms activity (quinpirole-injected rats [3]): improved
- head dipping activity (quinpirole-injected rats [4]): less response
